Assay results as given in patent publication US20240207263A1, “SELECTIVE MODULATORS OF ATAXIA TELA[…] (ATM) KINASE AND USES THEREOF” (priority 2021, published 2024).

Key:
[1] = test system: phosp-KAP1 in MCF-7 cells; assay: phosp-KAP1 MCF-7 cellular potency assay (Assay f); format: cell-based; conditions: Homo sapiens, MCF7; MCF-7 cells, etoposide; read-out: Etoposide MCF-7 cellular IC50
Protocol: Assay f): phosp-KAP1 MCF-7 Cellular Potency
MCF-7 cells were seeded to a 384-well cell-culture plate, 25 μl/well which were incubated at 37° C. and 5% CO2 for 24 hr. Test compounds were added to the 384-well plates. Etoposide at final concentration of 100 μM was then added to each well except Vehicle control wells, which were incubated at 37° C. and 5% CO2 for 1 hour. After medium removal, cells were fixed by the addition of 25 μl/well of 8% paraformaldehyde in PBSA and incubated for 20 minutes at room temperature. After the plates were rinsed 3 times with PBSA, 50 ul permeabilization buffer (0.1% Triton X-100 in PBS) was added and the plates were incubated for 20 minutes at room temperature. After the plates were rinsed with PBSA, block the cells by adding 50 μl of Odyssey Blocking Buffer in 384-well plate and then incubate for 1.5 hours at room temperature. Remove blocking buffer by Plate washer (BioTek ELx405 select CW). […] The plates were rinsed 5 times with PBST (0.1% Tween-20 in PBS).
• 1) Fluorescence intensity (FI) was detected for each well. • 2) % inhibition is calculated as follow:
[formula] • FIpositive: The average FI for the positive controls across the plate. • FIvehicle: The average FI for negative controls across the plate. • 3) Calculate IC50 and Plot effect-dose curve of compounds: • Calculate IC50 by fitting % inhibition values and log of compound concentrations to nonlinear regression (dose response−variable slope) with Graphpad prism 6.0.
Y=Bottom+(Top−Bottom)/(1+10^((Log IC50−X)*HillSlope)) • X: log of compounds concentration; Y: % inhibition

ATM = ATM (Homo sapiens (Human), UniProt Q13315); assay: biochemical; format: biochemical; conditions: read-out: ATM IC50
Excerpt: Assay a): ATM Biochemical Potency
Data was collected by Caliper.

Chain of ATM (Q13315 whole entry, looked up): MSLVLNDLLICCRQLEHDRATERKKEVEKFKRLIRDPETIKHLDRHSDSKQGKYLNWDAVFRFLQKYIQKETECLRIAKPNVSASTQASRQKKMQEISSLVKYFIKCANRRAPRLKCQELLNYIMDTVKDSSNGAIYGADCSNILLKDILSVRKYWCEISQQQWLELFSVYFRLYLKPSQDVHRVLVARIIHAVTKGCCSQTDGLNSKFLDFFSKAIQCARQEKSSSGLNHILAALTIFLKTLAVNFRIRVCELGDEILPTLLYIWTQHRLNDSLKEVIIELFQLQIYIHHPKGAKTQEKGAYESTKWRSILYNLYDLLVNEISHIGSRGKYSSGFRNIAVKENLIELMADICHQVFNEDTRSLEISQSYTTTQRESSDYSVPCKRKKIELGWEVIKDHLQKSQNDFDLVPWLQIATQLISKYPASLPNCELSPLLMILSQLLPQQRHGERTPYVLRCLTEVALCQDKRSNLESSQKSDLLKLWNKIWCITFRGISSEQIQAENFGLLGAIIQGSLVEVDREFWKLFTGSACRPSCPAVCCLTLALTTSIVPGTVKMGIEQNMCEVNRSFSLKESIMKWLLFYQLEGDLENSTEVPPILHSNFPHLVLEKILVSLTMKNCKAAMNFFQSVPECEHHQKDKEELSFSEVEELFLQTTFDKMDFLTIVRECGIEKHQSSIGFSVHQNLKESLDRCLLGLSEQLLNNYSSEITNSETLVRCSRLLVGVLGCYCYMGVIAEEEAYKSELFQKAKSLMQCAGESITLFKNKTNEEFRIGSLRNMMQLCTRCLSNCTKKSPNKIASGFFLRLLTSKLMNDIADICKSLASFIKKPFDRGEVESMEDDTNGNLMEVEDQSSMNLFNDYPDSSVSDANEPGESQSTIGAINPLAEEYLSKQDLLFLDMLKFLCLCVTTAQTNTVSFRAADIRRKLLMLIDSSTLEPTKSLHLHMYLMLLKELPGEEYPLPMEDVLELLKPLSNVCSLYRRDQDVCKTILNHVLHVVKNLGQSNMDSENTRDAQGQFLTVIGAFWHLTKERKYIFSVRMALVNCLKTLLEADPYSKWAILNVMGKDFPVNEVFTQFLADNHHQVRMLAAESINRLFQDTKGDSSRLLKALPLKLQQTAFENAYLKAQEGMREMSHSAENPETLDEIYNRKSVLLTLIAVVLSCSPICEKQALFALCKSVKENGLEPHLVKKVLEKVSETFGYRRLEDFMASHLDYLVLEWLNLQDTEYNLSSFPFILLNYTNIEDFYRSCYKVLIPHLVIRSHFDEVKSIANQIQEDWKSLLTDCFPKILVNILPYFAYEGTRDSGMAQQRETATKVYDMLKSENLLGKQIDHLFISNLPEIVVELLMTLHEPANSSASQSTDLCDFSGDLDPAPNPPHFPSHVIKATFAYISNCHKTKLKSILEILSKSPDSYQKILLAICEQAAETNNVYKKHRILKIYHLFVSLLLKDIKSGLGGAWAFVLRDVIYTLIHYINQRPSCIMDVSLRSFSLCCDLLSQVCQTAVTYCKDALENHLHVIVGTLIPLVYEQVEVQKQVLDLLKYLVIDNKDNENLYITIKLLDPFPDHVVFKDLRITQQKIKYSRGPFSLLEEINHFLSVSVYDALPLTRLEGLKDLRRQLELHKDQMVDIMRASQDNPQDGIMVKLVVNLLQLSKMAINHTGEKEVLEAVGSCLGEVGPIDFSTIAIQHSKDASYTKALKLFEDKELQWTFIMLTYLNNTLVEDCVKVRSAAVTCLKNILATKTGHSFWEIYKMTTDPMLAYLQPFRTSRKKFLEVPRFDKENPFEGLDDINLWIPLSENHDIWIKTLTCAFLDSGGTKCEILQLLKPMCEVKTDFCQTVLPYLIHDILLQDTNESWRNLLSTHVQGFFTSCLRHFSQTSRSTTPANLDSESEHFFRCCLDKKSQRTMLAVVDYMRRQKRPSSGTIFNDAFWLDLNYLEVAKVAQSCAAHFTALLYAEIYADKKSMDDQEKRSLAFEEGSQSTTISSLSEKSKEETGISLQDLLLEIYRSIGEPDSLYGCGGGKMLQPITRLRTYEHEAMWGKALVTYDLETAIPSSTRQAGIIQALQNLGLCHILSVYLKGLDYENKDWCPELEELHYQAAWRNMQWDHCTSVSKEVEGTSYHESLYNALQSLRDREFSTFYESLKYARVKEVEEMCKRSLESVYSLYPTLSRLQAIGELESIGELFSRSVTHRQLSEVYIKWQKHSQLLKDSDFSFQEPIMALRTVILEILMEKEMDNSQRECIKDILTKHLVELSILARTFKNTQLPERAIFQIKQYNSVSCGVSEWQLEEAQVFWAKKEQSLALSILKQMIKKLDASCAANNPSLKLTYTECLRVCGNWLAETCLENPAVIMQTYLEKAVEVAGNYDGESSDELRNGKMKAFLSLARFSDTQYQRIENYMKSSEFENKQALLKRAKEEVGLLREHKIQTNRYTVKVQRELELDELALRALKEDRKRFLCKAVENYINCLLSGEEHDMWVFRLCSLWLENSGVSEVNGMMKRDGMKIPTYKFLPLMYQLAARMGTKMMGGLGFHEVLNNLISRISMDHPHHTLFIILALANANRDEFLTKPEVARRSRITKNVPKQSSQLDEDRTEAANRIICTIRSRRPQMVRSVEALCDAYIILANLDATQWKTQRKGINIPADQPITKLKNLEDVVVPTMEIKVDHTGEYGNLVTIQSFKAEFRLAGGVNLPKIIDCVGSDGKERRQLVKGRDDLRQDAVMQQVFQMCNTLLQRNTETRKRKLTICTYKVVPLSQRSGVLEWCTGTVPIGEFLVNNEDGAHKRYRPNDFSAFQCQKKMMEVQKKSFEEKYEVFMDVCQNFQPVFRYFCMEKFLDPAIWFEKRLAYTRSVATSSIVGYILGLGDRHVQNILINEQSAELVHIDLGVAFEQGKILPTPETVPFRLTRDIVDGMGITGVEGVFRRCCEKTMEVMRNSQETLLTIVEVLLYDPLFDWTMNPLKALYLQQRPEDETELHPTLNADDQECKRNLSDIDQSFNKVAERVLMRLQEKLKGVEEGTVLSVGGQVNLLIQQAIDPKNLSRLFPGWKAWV

Row | SMILES | IC50 [1] [nM] | IC50 (ATM) [nM]
1 | C[C@@H](OCCN1CCC(C(F)(F)F)CC1)c1ccc(-c2ccc3nnc4c(c3c2)n(C2CCOCC2)c(=O)n4C)cn1 [Example 117, (R)-3-methyl-1-(tetrahydro-2H-pyran-4-yl)-8-(6-(1-(2-(4-(trifluoromethyl)piperidin-1-yl)ethoxy)ethyl)pyridin-3-yl)-1H-imidazo[4,5-c]cinnolin-2(3H)-one] | 65 | 3.7
2 | C[C@@H](OCCN1CCC2(CCC2)C1)c1ccc(-c2ccc3nnc4c(c3c2)n(C2CCOCC2)c(=O)n4C)cn1 [Example 118, (R)-8-(6-(1-(2-(6-azaspiro[3.4]octan-6-yl)ethoxy)ethyl)pyridin-3-yl)-3-methyl-1-(tetrahydro-2H-pyran-4-yl)-1H-imidazo[4,5-c]cinnolin-2(3H)-one] | 71 | 4.1
3 | CC(C)n1c(=O)n(C)c2nnc3cc(F)c(-c4ccc(COCCN5CCC(C)(C)CC5)nc4)cc3c21 [Example 133, 8-(6-((2-(4,4-dimethylpiperidin-1-yl)ethoxy)methyl)pyridin-3-yl)-7-fluoro-1-isopropyl-3-methyl-1H-imidazo[4,5-c]cinnolin-2(3H)-one] | 44 | 13
4 | CC(C)n1c(=O)n(C)c2nnc3cc(F)c(-c4ccc([C@@H](C)OCCN5CCC(C)(C)C5)nc4)cc3c21 [Example 137, (R)-8-(6-(1-(2-(3,3-dimethylpyrrolidin-1-yl)ethoxy)ethyl)pyridin-3-yl)-7-fluoro-1-isopropyl-3-methyl-1H-imidazo[4,5-c]cinnolin-2(3H)-one] | 22 | 6.3
5 | CC(C)n1c(=O)n(C)c2nnc3cc(F)c(-c4ccc([C@@H](C)OCCN5CCC6(CC5)CC6)nc4)cc3c21 [Example 140, (R)-8-(6-(1-(2-(6-azaspiro[2.5]octan-6-yl)ethoxy)ethyl)pyridin-3-yl)-7-fluoro-1-isopropyl-3-methyl-1H-imidazo[4,5-c]cinnolin-2(3H)-one] | 14 | 2.8
6 | COC1CCN(CCO[C@H](C)c2ccc(-c3cc4c(cc3F)nnc3c4n(C(C)C)c(=O)n3C)cn2)CC1 [Example 142, (R)-7-fluoro-1-isopropyl-8-(6-(1-(2-(4-methoxypiperidin-1-yl)ethoxy)ethyl)pyridin-3-yl)-3-methyl-1H-imidazo[4,5-c]cinnolin-2(3H)-one] | 24 | 4.7
7 | CC(C)n1c(=O)n(C)c2nnc3cc(F)c(-c4ccc([C@@H](C)OCCN5CCC(OC(F)(F)F)CC5)nc4)cc3c21 [Example 144, (R)-7-fluoro-1-isopropyl-3-methyl-8-(6-(1-(2-(4-(trifluoromethoxy)piperidin-1-yl)ethoxy)ethyl)pyridin-3-yl)-1H-imidazo[4,5-c]cinnolin-2(3H)-one] | 47 | 2.9
8 | C[C@@H](OCCN1CCC(C)(C)C1)c1ccc(-c2cc3c(cc2F)nnc2c3n(C3CCOCC3)c(=O)n2C)cn1 [Example 153, (R)-8-(6-(1-(2-(3,3-dimethylpyrrolidin-1-yl)ethoxy)ethyl)pyridin-3-yl)-7-fluoro-3-methyl-1-(tetrahydro-2H-pyran-4-yl)-1H-imidazo[4,5-c]cinnolin-2(3H)-one] | 43 | 8.5
9 | CO[C@H]1C[C@@H](n2c(=O)n(C)c3nnc4ccc(-c5ccc(COCCN6CCC(F)CC6)nc5)cc4c32)C1 [Example 174, 8-(6-((2-(4-fluoropiperidin-1-yl)ethoxy)methyl)pyridin-3-yl)-1-(cis-3-methoxycyclobutyl)-3-methyl-1H-imidazo[4,5-c]cinnolin-2(3H)-one] | 26 | 28
